# Measurements: US5071636A, “Chelating compounds and their use” (Nihon Medi-Physics Co., Ltd., priority 1987, dated 1991)
# Tests used:
# [1] = system: normal cerebral parenchymal cells; details: in vivo; cited from earlier work
# [2] = Biodistribution in rabbits: biological half life in the brain by gamma camera imaging; type: in vivo, Japanese white rabbits (male); details: for Accumulation in the cerebral parenchymal cells / biological half life in the brain, first phase / biological half life in the brain, second phase / rate of first phase of biological half life in the brain / rate of second phase of biological half life in the brain: rabbits, Example 10; for Accumulation in the cerebral parenchymal cells: imaging; for biological half life in the brain, first phase / biological half life in the brain, second phase / rate of first phase of biological half life in the brain / rate of second phase of biological half life in the brain: via the carotid artery; for Biological half-life in brain, First phase / Biological half-life in brain, First phase (rate) / Biological half-life in brain, Second phase / Biological half-life in brain, Second phase (rate): rabbit, in vivo
# Method: Japanese white rabbits (male) were anesthetized with a pentobarbital solution (2.5 mg/kg), and Tc-99m(BI-11o) (0.2 ml, […]) was administered via the carotid artery under a gamma camera (GCA-90B, Toshiba Co., Ltd.). Then, imaging of 112 frames (30 seconds/frame) was made in minutes. A region of interest was drawn around brain on images, and the time-activitycurve of the brain was obtained.
# It was thus concluded that the above examination procedure was suitable for evaluation of the accumulation in the brain and the disappearance from the brain.
# In the same manner as in Example 10 using other technetium-99m-labeled polyaminedithiol compounds instead of Tc-99m-(BI-11o), their biodistribution in rabbits was examined, and their biological half-life in the brain was calculated.
# [3] = Thin layer electrophoresis (EP) of technetium-99m-labeled compounds; type: physicochemical; details: Table 16, Tc-99m-labeled; 50 mM phosphate buffer pH 7.4, 0.5 mA/cm, room temperature, 15 minutes
# Method: ZI. Thin layer electrophoresis for Tc-99m-(BI-11c)
# An appropriate amount of Tc-99m-(BI-11c) was spotted on an acetylated cellulose membrane and subjected to electrophoresis using 50 mM phosphate buffer (pH, 7.4) as an electrode buffer at a constant current of 0.5 mA/cm and at room temperature for 15 minutes. In the same manner as in ZH, the membrane was scanned to determine the distribution of radioactivity with a thin layer radioachromatoscanner.
# In the same manner as in Example 8 ZF, ZG, ZH and ZI but using other polyaminedithiol compounds instead of Compound (11c), preparation of non-radioactive carriers and radioactive diagnostic agents was made. The optimum labeling conditions for the polyaminedithiol compounds were studied. Furthermore, the physical characteristics of the produced technetium-99m-labeled polyaminedithiol compounds were evaluated.
SMILES,accumulation in normal cerebral parenchymal cells [1],Accumulation in the cerebral parenchymal cells [2],"biological half life in the brain, first phase [2] [minutes]","biological half life in the brain, second phase [2] [minutes]",rate of first phase of biological half life in the brain [2] [%],rate of second phase of biological half life in the brain [2] [%],"Biological half-life in brain, First phase [2] [min]","Biological half-life in brain, First phase (rate) [2] [%]","Biological half-life in brain, Second phase [2] [min]","Biological half-life in brain, Second phase (rate) [2] [%]",EP (Charge) [3]
"O=C([O-])CN(CCN(CC(=O)[O-])CC(=O)[O-])CCN(CC(=O)[O-])CC(=O)[O-].[99Tc+4] [^99m Tc-DTPA, ^99m Tc-labeled diethylenetriaminepentaacetic acid, reference compound]",not accumulating,no accumulation was seen,2,18,75,25,–,–,–,–,–
"CN1CCN(CC(NCCNCC(C)(C)S)C(C)(C)S)CC1 (centres unmarked) [Compound 11i, N-(2-Mercapto-2-methylpropyl)-N' -[2-mercapto-2-methyl-1-(4-methyl-piperazino)methylpropyl]ethylene-diamine]",–,–,–,–,–,–,8,50,686,50,–
"CC(C)(S)CNCCNC(CN1CCCCC1)C(C)(C)S (centres unmarked) [Compound 11g, N-(2-Mercapto-2-methylpropyl)-N' -(2-mercapto-2-methyl-1-piperidino-methylpropyl)ethylenediamine]",–,–,–,–,–,–,5,23,60,77,–
"CC(C)(S)CNCCNC(CN1CCNCC1)C(C)(C)S (centres unmarked) [Compound 11h, N-(2-Mercapto-2-methylpropyl)-N'-(2-mercapto-2-methyl-1-piperazinomethylpropyl)ethylenediamine]",–,–,–,–,–,–,1,44,40,56,–
"CCCCCCNCC(NCCNCC(C)(C)S)C(C)(C)S (centres unmarked) [Compound 11m, N-(2-Mercapto-2-methylpropyl)-N' -(1-n-hexylaminomethyl-2-mercapto-2-methylpropyl)ethylenediamine]",–,–,–,–,–,–,3,24,58,76,.smallcircle.
"CC1CCN(CC(NCCNCC(C)(C)S)C(C)(C)S)CC1 (centres unmarked) [Compound 11p, N-(2-Mercapto-2-methylpropyl)-N'-[2-mercapto-2-methyl-1-(4-methylpiperidino)methylpropyl]ethylenediamine]",–,–,–,–,–,–,3,18,83,82,.smallcircle.
"CC(C)(S)CNCCNC(CN1CCN(Cc2ccccc2)CC1)C(C)(C)S (centres unmarked) [Compound 11w, N-(2-Mercapto-2-methylpropyl)-N'-[1-(4-benzylpiperazino)methyl-2-mercapto-2-methylpropyl]ethylenediamine]",–,–,–,–,–,–,13,60,144,40,.smallcircle.
"CCCCN(CC)CC(NCCNCC(C)(C)S)C(C)(C)S (centres unmarked) [Compound 11n, N-(2-Mercapto-2-methylpropyl)-N' -[1-(N-butyl-N-ethylamino)-methyl-2-mercapto-2-methylpropyl]ethylenediamine]",–,–,–,–,–,–,17,42,198,58,–
"CC(C)(S)C(CNCCCN1CCOCC1)NCCNC(CNCCCN1CCOCC1)C(C)(C)S (centres unmarked) [Compound 14s, N,N'-Bis[2-mercapto-2-methyl-1-(3-morpholinopropylamino)methyl-propyl]ethylenediamine]",–,–,–,–,–,–,–,–,–,–,.smallcircle.
"CC(C)NC(C)Cc1ccc([123I])cc1 (centres unmarked) [Compound I-123-IMP, N-isopropyl-2-methyl-p-iodo(I-123)-phenethylamine, reference compound]",–,observed,71,98,39,61,–,–,–,–,–
"CC(C)(S)CNCCNC(CN1CCC(c2ccccc2)CC1)C(C)(C)S (centres unmarked) [Compound 11x, N-(2-Mercapto-2-methylpropyl)-N'-[2-mercapto-2-methyl-1-(4-phenylpiperidino)methylpropyl]ethylenediamine]",–,–,–,–,–,–,10,46,150,54,.smallcircle.
"CCCCSC(C)(C)CNCCNC(CN1CCC(C)CC1)C(C)(C)S (centres unmarked) [Compound 33, N-(2-Butylthio-2-methylpropyl)-N'-[2-mercapto-2-methyl-1-(4-methylpiperidino)methylpropyl]-ethylenediamine]",–,–,–,–,–,–,7,26,148,74,.smallcircle.
"CCCCCNCC(NCCNCC(C)(C)S)C(C)(C)S (centres unmarked) [Compound 11d, N-(2-Mercapto-2-methylpropyl)-N' -(1-n-amylaminomethyl-2-mercapto-2-methylpropyl)ethylenediamine]",–,–,–,–,–,–,18,32,184,68,.smallcircle.
"CC(C)(S)CNCCNC(CN1CCOCC1)C(C)(C)S (centres unmarked) [Compound 11k, N-(2-Mercapto-2-methylpropyl)-N' -(2-mercapto-2-methyl-1-morpholino-methylpropyl)ethylenediamine]",–,–,–,–,–,–,4,39,21,61,–
"CCCC(C)NCC(NCCNCC(C)(C)S)C(C)(C)S (centres unmarked) [Compound 11l, N-(2-Mercapto-2-methylpropyl)-N' -[1-(1-methylbutylamino)-methyl-2-mercapto-2-methylpropyl]ethylene-diamine]",–,–,–,–,–,–,11,34,132,66,–
"CC(C)(S)CNCCNC(CN1CCCC1)C(C)(C)S (centres unmarked) [Compound 11r, N-(2-Mercapto-2-methylpropyl)-N'-(2-mercapto-2-methyl-1-pyrrolidinomethylpropyl)ethylenediamine]",–,–,–,–,–,–,3,28,36,72,–
"CC(C)(S)C(CNCCN1CCOCC1)NCCNC(CNCCN1CCOCC1)C(C)(C)S (centres unmarked) [Compound 14r, N,N' -Bis[2-mercapto-2-methyl-1-(2-morpholinoethylamino)methylpropyl]-ethylenediamine]",–,–,–,–,–,–,–,–,–,–,.smallcircle.
